From ChEMBL document CHEMBL3792297, “Studies on phenothiazines: New microtubule-interacting compounds with phenothiazine A-ring as potent antineoplastic agents” (Bioorg Med Chem, 2016)

Key:
[1] = Growth inhibition of human OVCAR4 cells at 10 uM after 48 hrs by SRB assay relative to control; type: functional; conditions: OVCAR-4, 48 h, read-out: GI
MCF7 = assay: Growth inhibition of human MCF7 cells at 10 uM after 48 hrs by SRB assay relative to control; type: functional; conditions: MCF7, 48 h, read-out: GI
[2] = Growth inhibition of human SF295 cells at 10 uM after 48 hrs by SRB assay relative to control; type: functional; conditions: SF-295, 48 h, read-out: GI
NCI-H460 = assay: Growth inhibition of human NCI-H460 cells at 10 uM after 48 hrs by SRB assay relative to control; type: functional; conditions: NCI-H460, 48 h, read-out: GI
[3] = Growth inhibition of human HCC2998 cells at 10 uM after 48 hrs by SRB assay relative to control; type: functional; conditions: HCC 2998, 48 h, read-out: GI
EKVX = assay: Growth inhibition of human EKVX cells at 10 uM after 48 hrs by SRB assay relative to control; type: functional; conditions: read-out: GI
[4] = Growth inhibition of human LOXIMVI cells at 10 uM after 48 hrs by SRB assay relative to control; type: functional; conditions: LOX IMVI, read-out: GI
A498 = assay: Growth inhibition of human A498 cells at 10 uM after 48 hrs by SRB assay relative to control; type: functional; conditions: A498, 48 h, read-out: GI
SR = assay: Growth inhibition of human SR cells at 10 uM after 48 hrs by SRB assay relative to control; type: functional; conditions: read-out: GI
[5] = Growth inhibition of human RXF393 cells at 10 uM after 48 hrs by SRB assay relative to control; type: functional; conditions: RXF 393, 48 h, read-out: GI
[6] = Growth inhibition of human OVCAR3 cells at 10 uM after 48 hrs by SRB assay relative to control; type: functional; conditions: OVCAR-3, 48 h, read-out: GI
M14 = assay: Growth inhibition of human M14 cells at 10 uM after 48 hrs by SRB assay relative to control; type: functional; conditions: M14, 48 h, read-out: GI
[7] = Growth inhibition of human DU145 cells at 10 uM after 48 hrs by SRB assay relative to control; type: functional; conditions: DU-145, 48 h, read-out: GI
NCI-H322M = assay: Growth inhibition of human NCI-H322M cells at 10 uM after 48 hrs by SRB assay relative to control; type: functional; conditions: read-out: GI
T47D = assay: Growth inhibition of human T47D cells at 10 uM after 48 hrs by SRB assay relative to control; type: functional; conditions: read-out: GI
KM12 = assay: Growth inhibition of human KM12 cells at 10 uM after 48 hrs by SRB assay relative to control; type: functional; conditions: KM12, 48 h, read-out: GI
A549 = assay: Growth inhibition of human A549 cells at 10 uM after 48 hrs by SRB assay relative to control; type: functional; conditions: A549, 48 h, read-out: GI
786-0 = assay: Growth inhibition of human 786-0 cells at 10 uM after 48 hrs by SRB assay relative to control; type: functional; conditions: 786-0, 48 h, read-out: GI
[8] = Growth inhibition of human BT549 cells at 10 uM after 48 hrs by SRB assay relative to control; type: functional; conditions: BT-549, 48 h, read-out: GI
K562 = assay: Growth inhibition of human K562 cells at 10 uM after 48 hrs by SRB assay relative to control; type: functional; conditions: K562, 48 h, read-out: GI
[9] = Growth inhibition of human HOP62 cells at 10 uM after 48 hrs by SRB assay relative to control; type: functional; conditions: HOP-62, 48 h, read-out: GI
[10] = Growth inhibition of human OVCAR5 cells at 10 uM after 48 hrs by SRB assay relative to control; type: functional; conditions: OVCAR-5, 48 h, read-out: GI
[11] = Growth inhibition of human TK10 cells at 10 uM after 48 hrs by SRB assay relative to control; type: functional; conditions: TK-10, 48 h, read-out: GI
[12] = Growth inhibition of human SF539 cells at 10 uM after 48 hrs by SRB assay relative to control; type: functional; conditions: SF-539, 48 h, read-out: GI
NCI-H226 = assay: Growth inhibition of human NCI-H226 cells at 10 uM after 48 hrs by SRB assay relative to control; type: functional; conditions: NCI-H226, 48 h, read-out: GI
[13] = Growth inhibition of human PC3 cells at 10 uM after 48 hrs by SRB assay relative to control; type: functional; conditions: PC-3, 48 h, read-out: GI
Ovis aries = species on record: Ovis aries; assay: Inhibition of sheep brain tubulin polymerization at 100 uM by DAPI staining-based fluorimetric method
[14] = Growth inhibition of human SNB75 cells at 10 uM after 48 hrs by SRB assay relative to control; type: functional; conditions: SNB-75, 48 h, read-out: GI
[15] = Growth inhibition of human MOLT4 cells at 10 uM after 48 hrs by SRB assay relative to control; type: functional; conditions: MOLT-4, 48 h, read-out: GI
[16] = Growth inhibition of human COLO205 cells at 10 uM after 48 hrs by SRB assay relative to control; type: functional; conditions: COLO 205, 48 h, read-out: GI
MDA-MB-231 = assay: Growth inhibition of human MDA-MB-231 cells at 10 uM after 48 hrs by SRB assay relative to control; type: functional; conditions: MDA-MB-231, 48 h, read-out: GI
U-251 = assay: Growth inhibition of human U251 cells at 10 uM after 48 hrs by SRB assay relative to control; type: functional; conditions: U-251, 48 h, read-out: GI
[17] = Growth inhibition of human UACC62 cells at 10 uM after 48 hrs by SRB assay relative to control; type: functional; conditions: UACC-62, 48 h, read-out: GI
[18] = Growth inhibition of human HOP92 cells at 10 uM after 48 hrs by SRB assay relative to control; type: functional; conditions: HOP-92, 48 h, read-out: GI
[19] = Growth inhibition of human UO31 cells at 10 uM after 48 hrs by SRB assay relative to control; type: functional; conditions: UO-31, 48 h, read-out: GI
NCI-H522 = assay: Growth inhibition of human NCI-H522 cells at 10 uM after 48 hrs by SRB assay relative to control; type: functional; conditions: NCI-H522, 48 h, read-out: GI
[20] = Growth inhibition of human RPMI8226 cells at 10 uM after 48 hrs by SRB assay relative to control; type: functional; conditions: RPMI-8226, 48 h, read-out: GI
CCRF-CEM = assay: Growth inhibition of human CCRF-CEM cells at 10 uM after 48 hrs by SRB assay relative to control; type: functional; conditions: read-out: GI
Malme-3M = assay: Growth inhibition of human MALME-3M cells at 10 uM after 48 hrs by SRB assay relative to control; type: functional; conditions: read-out: GI
NCI-H23 = assay: Growth inhibition of human NCI-H23 cells at 10 uM after 48 hrs by SRB assay relative to control; type: functional; conditions: NCI-H23, 48 h, read-out: GI

Row | SMILES | inhibition of growth at 10 µM [1] [%] | inhibition of growth at 10 µM (MCF7) [%] | inhibition of growth at 10 µM [2] [%] | inhibition of growth at 10 µM (NCI-H460) [%] | inhibition of growth at 10 µM [3] [%] | inhibition of growth at 10 µM (EKVX) [%] | inhibition of growth at 10 µM [4] [%] | inhibition of growth at 10 µM (A498) [%] | inhibition of growth at 10 µM (SR) [%] | inhibition of growth at 10 µM [5] [%] | inhibition of growth at 10 µM [6] [%] | inhibition of growth at 10 µM (M14) [%] | inhibition of growth at 10 µM [7] [%] | inhibition of growth at 10 µM (NCI-H322M) [%] | inhibition of growth at 10 µM (T47D) [%] | inhibition of growth at 10 µM (KM12) [%] | inhibition of growth at 10 µM (A549) [%] | inhibition of growth at 10 µM (786-0) [%] | inhibition of growth at 10 µM [8] [%] | inhibition of growth at 10 µM (K562) [%] | further results
1 | COc1ccc(C(=O)N2c3ccccc3Sc3ccccc32)c(OC)c1 | 43 | 80 | 88 | 90 | 87 | 66 | 62 | 95 | 78 | 100 | 100 | 100 | 90 | 38 | 59 | 86 | 69 | 71 | 83 | 89 | inhibition of growth at 10 µM [9]: 52%; inhibition of growth at 10 µM [10]: 52%; inhibition of growth at 10 µM [11]: 44%; inhibition of growth at 10 µM [12]: 100%; inhibition of growth at 10 µM (NCI-H226): 69%; inhibition of growth at 10 µM [13]: 89%; inhibition (Ovis aries): 53%; inhibition of growth at 10 µM [14]: 82%; inhibition of growth at 10 µM [15]: 88%; inhibition of growth at 10 µM [16]: 100%; inhibition of growth at 10 µM (MDA-MB-231): 62%; inhibition of growth at 10 µM (U-251): 75%; inhibition of growth at 10 µM [17]: 86%; inhibition of growth at 10 µM [18]: 69%; inhibition of growth at 10 µM [19]: 52%; inhibition of growth at 10 µM (NCI-H522): 100%; inhibition of growth at 10 µM [20]: 84%; inhibition of growth at 10 µM (CCRF-CEM): 83%; inhibition of growth at 10 µM (Malme-3M): 33%; inhibition of growth at 10 µM (NCI-H23): 62%
2 | O=C(c1ccc(F)cc1F)N1c2ccccc2Sc2ccccc21 | 17 | 48 | 36 | 80 | 47 | 20 | 74 | 38 | 72 | 35 | 43 | 35 | 20 | 8 | 35 | 62 | 48 | 26 | 43 | 82 | inhibition of growth at 10 µM [9]: 33%; inhibition of growth at 10 µM [10]: 21%; inhibition of growth at 10 µM [11]: 23%; inhibition of growth at 10 µM [12]: 49%; inhibition of growth at 10 µM (NCI-H226): 30%; inhibition of growth at 10 µM [13]: 58%; inhibition (Ovis aries): 25%; inhibition of growth at 10 µM [14]: 31%; inhibition of growth at 10 µM [15]: 69%; inhibition of growth at 10 µM [16]: 56%; inhibition of growth at 10 µM (MDA-MB-231): 38%; inhibition of growth at 10 µM (U-251): 66%; inhibition of growth at 10 µM [17]: 68%; inhibition of growth at 10 µM [18]: 39%; inhibition of growth at 10 µM [19]: 31%; inhibition of growth at 10 µM (NCI-H522): 41%; inhibition of growth at 10 µM [20]: 47%; inhibition of growth at 10 µM (CCRF-CEM): 38%; inhibition of growth at 10 µM (Malme-3M): 44%; inhibition of growth at 10 µM (NCI-H23): 23%
3 | O=C(c1ccc(F)c(Cl)c1)N1c2ccccc2Sc2ccccc21 | 20 | 49 | 36 | 1 | 38 | 26 | 59 | 38 | 66 | 29 | 37 | 47 | 10 | 0 | 39 | 60 | 34 | 20 | 42 | 79 | inhibition of growth at 10 µM [9]: 23%; inhibition of growth at 10 µM [10]: 13%; inhibition of growth at 10 µM [11]: 15%; inhibition of growth at 10 µM [12]: 38%; inhibition of growth at 10 µM (NCI-H226): 23%; inhibition of growth at 10 µM [13]: 60%; inhibition (Ovis aries): 42%; inhibition of growth at 10 µM [14]: 31%; inhibition of growth at 10 µM [15]: 56%; inhibition of growth at 10 µM [16]: 55%; inhibition of growth at 10 µM (MDA-MB-231): 39%; inhibition of growth at 10 µM (U-251): 61%; inhibition of growth at 10 µM [17]: 74%; inhibition of growth at 10 µM [18]: 63%; inhibition of growth at 10 µM [19]: 27%; inhibition of growth at 10 µM (NCI-H522): 57%; inhibition of growth at 10 µM [20]: 47%; inhibition of growth at 10 µM (CCRF-CEM): 42%; inhibition of growth at 10 µM (Malme-3M): 36%; inhibition of growth at 10 µM (NCI-H23): 21%
4 | COc1ccc(C(=O)N2c3ccccc3Sc3ccccc32)c(F)c1 | 51 | 76 | 91 | 88 | 70 | 56 | 60 | 98 | 77 | 100 | 100 | 98 | 95 | 56 | 60 | 77 | 73 | 77 | 77 | 87 | inhibition of growth at 10 µM [9]: 63%; inhibition of growth at 10 µM [10]: 38%; inhibition of growth at 10 µM [11]: 55%; inhibition of growth at 10 µM [12]: 100%; inhibition of growth at 10 µM (NCI-H226): 54%; inhibition of growth at 10 µM [13]: 70%; inhibition (Ovis aries): 75%; inhibition of growth at 10 µM [14]: 100%; inhibition of growth at 10 µM [15]: 73%; inhibition of growth at 10 µM [16]: 92%; inhibition of growth at 10 µM (MDA-MB-231): 47%; inhibition of growth at 10 µM (U-251): 66%; inhibition of growth at 10 µM [17]: 77%; inhibition of growth at 10 µM [18]: 58%; inhibition of growth at 10 µM [19]: 51%; inhibition of growth at 10 µM (NCI-H522): 99%; inhibition of growth at 10 µM [20]: 81%; inhibition of growth at 10 µM (CCRF-CEM): 83%; inhibition of growth at 10 µM (Malme-3M): 53%; inhibition of growth at 10 µM (NCI-H23): 68%
